Measured values taken from PMC8219408, “Switching Cytolytic Nanopores into Antimicrobial Fractal Ruptures by a Single Side Chain Mutation” (ACS nano, 2021).
In brackets after ≈: the same amount, converted by molar mass. Where two headings read alike, the source gives them in different places. Bridge positions count the residues as written; N and C are the ends. Square brackets hold non-standard residues; d marks the D form. Peptide text beside a SMILES is read from it. * marks the point of attachment. X1 = CC[C@H](C)CCCCC(=O)*; Dab = NCC[C@H](N)C(=O)O

Key:
[1] = system: K. pneumoniae (NCTC 5055); assay type: cell-based
Experimental: (§1) MIC values were obtained using broth microdilution against different bacteria following the protocols by Clinical and Laboratory Standards Institute. Specifically, each bacterium (100 μL of 0.5–1 × 10^6 CFU per ml) in Mueller Hinton media broth (Oxoid) was incubated in 96-well microtiter plates at 37 °C on a 3D orbital shaker. 100 μL of serial twofold peptide dilutions (from 100 to 0 μM) were used. Following peptide addition, absorbance (600 nm) was measured in a SpectraMax i3x multi-mode microplate reader (Molecular Devices). The lowest peptide concentrations inhibiting visible bacterial growth after 24 h at 37 °C was defined as MICs. All tests were performed in triplicate.

Human erythrocytes = assay: Hemolysis assay; assay type: cell-based
Experimental: For hemolysis measurements 10% (vol/vol) suspensions of human erythrocytes with peptides were used. Phosphate buffer saline (PBS, 10 mM, pH 7.2) was used to rinse human red blood cells (4x) using repeated centrifugation and re-suspension (3 min, 3000 × g). The cells were incubated for 1 h at room temperature in deionized water (fully hemolysed control), with peptide in PBS or just PBS, which was followed by centrifugation (5 min, 10000 × g). The obtained supernatant was then separated from the pellet, and absorbance (550 nm) was measured in a SpectraMax i3x multi-mode microplate reader (Molecular Devices). Absorbance obtained for the suspension that was treated with deionized water gave complete (100%) hemolysis. Table S1 summarises the results, with the values corresponding to % hemolysis for peptide at 250 μM. All tests were performed in triplicate.

S. typhimurium (6192) = assay type: cell-based
Experimental: as §1

M. luteus (ATCC 49732) = assay type: cell-based
Experimental: as §1

B. subtilis (ATCC 6633) = assay type: cell-based
Experimental: as §1

S. aureus (ATCC 6538) = assay type: cell-based
Experimental: as §1

[2] = system: P. aeruginosa (ATCC 27853); assay type: cell-based
Experimental: as §1

E. coli (ATCC 15597) = assay type: cell-based
Experimental: as §1

[3] = molecular target: DLPC/DLPG (3:1 molar ratio) unilamellar vesicles; assay: Isothermal titration calorimetry, anionic vesicles; conditions: ITC, peptide (500 μM) titrated into DLPC/DLPG (3:1) vesicles (380 μM total lipid), 25 °C, one-set binding model, duplicate; read-out: dissociation constant (KD)
Experimental: The lipids used for the assembly of unilamellar vesicles were from Avanti Polar Lipids: 1,2-dilauroylphosphatidylcholine (DLPC) was used for zwitterionic vesicles, while its mixture with 1,2-dilauroyl-sn-glycero-3-phospho-(1’-rac-glycerol) (DLPG) at a 3:1 molar ratio was used for anionic vesicles. After weighting up the lipid aliquots were dissolved in chloroform and dried under a nitrogen stream until a thin film was formed. The obtained film was subjected to hydration in 10 mM phosphate buffer (pH 7.4), which was followed by vortexing (1x, 2 min) and sonication (1x, 30 min). A hand-held extruder (Avanti Polar lipids) was used to extrude the resulting suspension (29x, polycarbonate filter, 0.05 μm) until a clear solution containing small unilamellar vesicles (SUV) was obtained. The SUVs were then analysed (50 nm) using a Zetasizer Nano (ZEN3600, Malvern Instruments, UK) and re-suspended to a final concentration of 1 mg/mL. The measurements were performed using a low volume disposable cuvette at 25°C. […]
A Microcal isothermal titration calorimeter-200 (ITC-200) was used to carry out all ITC experiments. […] Binding isotherms were recorded for peptides (500 μM) titrated into unilamellar phospholipid vesicles (380 μM, total lipid) in the cell. […]

[4] = K. pneumoniae (NCTC 5055), broth microdilution (CLSI), Mueller Hinton broth, 24 h at 37 °C, triplicate

Row | Structure (SMILES) | Minimum inhibitory concentration [1, 4] [µM] | % hemolysis, at 250 μM (Human erythrocytes; 250 µM, pH 7.2) [%] | Minimum inhibitory concentration (S. typhimurium (6192); 6192, 24 h) [µM] | Minimum inhibitory concentration (M. luteus (ATCC 49732); ATCC 49732, 24 h) [µM] | Minimum inhibitory concentration ([1]; NCTC 5055, 24 h) [µM] | Minimum inhibitory concentration (B. subtilis (ATCC 6633); ATCC 6633, 24 h) [µM] | Minimum inhibitory concentration (S. aureus (ATCC 6538); ATCC 6538, 24 h) [µM] | Minimum inhibitory concentration ([2]; ATCC 27853, 24 h) [µM] | Minimum inhibitory concentration (E. coli (ATCC 15597); ATCC 15597, 24 h) [µM] | Kd [3] [µM] | hemolytic activity (in words) (Human erythrocytes) | % hemolysis, at 250 μM (Human erythrocytes; peptide at 250 μM, 10% (vol/vol) human erythrocytes in PBS pH 7.2, 1 h at room temperature, absorbance 550 nm, deionized water = 100%, triplicate) [%] | Minimum inhibitory concentration (S. typhimurium (6192); S. typhimurium (6192), broth microdilution (CLSI), Mueller Hinton broth, 24 h at 37 °C, triplicate) [µM] | Minimum inhibitory concentration (M. luteus (ATCC 49732); M. luteus (ATCC 49732), broth microdilution (CLSI), Mueller Hinton broth, 24 h at 37 °C, triplicate) [µM] | Minimum inhibitory concentration (B. subtilis (ATCC 6633); B. subtilis (ATCC 6633), broth microdilution (CLSI), Mueller Hinton broth, 24 h at 37 °C, triplicate) [µM] | Minimum inhibitory concentration (S. aureus (ATCC 6538); S. aureus (ATCC 6538), broth microdilution (CLSI), Mueller Hinton broth, 24 h at 37 °C, triplicate) [µM] | Minimum inhibitory concentration ([2]; P. aeruginosa (ATCC 27853), broth microdilution (CLSI), Mueller Hinton broth, 24 h at 37 °C, triplicate) [µM] | Minimum inhibitory concentration (E. coli (ATCC 15597); E. coli (ATCC 15597), broth microdilution (CLSI), Mueller Hinton broth, 0.5–1 × 10^6 CFU per ml, 24 h at 37 °C, absorbance 600 nm, triplicate) [µM]
1 | CC[C@H](C)[C@H](NC(=O)CN)C(=O)NCC(=O)N[C@@H](C)C(=O)N[C@H](C(=O)N[C@@H](CC(C)C)C(=O)N[C@@H](CCCCN)C(=O)N[C@H](C(=O)N[C@@H](CC(C)C)C(=O)N[C@H](C(=O)N[C@H](C(=O)NCC(=O)N[C@@H](CC(C)C)C(=O)N1CCC[C@H]1C(=O)N[C@@H](C)C(=O)N[C@@H](CC(C)C)C(=O)N[C@H](C(=O)N[C@@H](CO)C(=O)N[C@@H](Cc1c[nH]c2ccccc12)C(=O)N[C@H](C(=O)N[C@@H](CCCCN)C(=O)N[C@@H](CCCNC(=N)N)C(=O)N[C@@H](CCCCN)C(=O)N[C@@H](CCCNC(=N)N)C(=O)N[C@@H](CCC(N)=O)C(=O)N[C@@H](CCC(N)=O)C(N)=O)[C@@H](C)CC)[C@@H](C)CC)[C@@H](C)O)[C@@H](C)O)C(C)C)C(C)C [melittin, reference compound] | 3 (≈ 8.54 µg/mL) |  |  |  |  |  |  |  |  |  |  |  |  |  |  |  |  | 
2 | CC(C)C[C@H](NC(=O)[C@H](CCCNC(=N)N)NC(=O)[C@H](CC(C)C)NC(=O)[C@H](CCCCN)NC(=O)[C@H](CC(C)C)NC(=O)[C@H](CCCNC(=N)N)NC(=O)[C@H](CC(C)C)NC(=O)[C@H](CC(C)C)NC(=O)[C@@H](N)CCCNC(=N)N)C(N)=O [bienK9] (H-RLLRLKLRL-NH2; N-terminus assumed) |  | 0 | 50 (≈ 59 µg/mL) | 1.5 (≈ 1.77 µg/mL) | > 50 | 3 (≈ 3.54 µg/mL) | 12 (≈ 14.2 µg/mL) | 6 (≈ 7.08 µg/mL) | 3 (≈ 3.54 µg/mL) | 2.12 |  |  |  |  |  |  |  | 
3 | CC(C)C[C@H](NC(=O)[C@H](CC(C)C)NC(=O)[C@H](CCCNC(=N)N)NC(=O)[C@H](CC(C)C)NC(=O)[C@H](CCCCN)NC(=O)[C@H](CC(C)C)NC(=O)[C@H](CCCNC(=N)N)NC(=O)[C@H](CC(C)C)NC(=O)[C@H](CC(C)C)NC(=O)[C@@H](N)CCCNC(=N)N)C(=O)N[C@@H](CCCNC(=N)N)C(N)=O [bienK11] (H-RLLRLKLRLLR-NH2) |  | 0 | 50 (≈ 72.4 µg/mL) | 1.5 (≈ 2.17 µg/mL) | > 50 | 3 (≈ 4.35 µg/mL) | 12 (≈ 17.4 µg/mL) | 12 (≈ 17.4 µg/mL) | 3 (≈ 4.35 µg/mL) |  | non-hemolytic |  |  |  |  |  |  | 
4 | CC(C)C[C@H](NC(=O)[C@H](CC(C)C)NC(=O)[C@H](CCCNC(=N)N)NC(=O)[C@H](CC(C)C)NC(=O)[C@H](C)NC(=O)[C@H](CC(C)C)NC(=O)[C@H](CCCNC(=N)N)NC(=O)[C@H](CC(C)C)NC(=O)[C@H](CC(C)C)NC(=O)[C@@H](N)CCCNC(=N)N)C(N)=O [bienA10] (H-RLLRLALRLL-NH2; N-terminus assumed) |  | 25 | 6 (≈ 7.41 µg/mL) | 1.5 (≈ 1.85 µg/mL) | 3 (≈ 3.71 µg/mL) | 1.5 (≈ 1.85 µg/mL) | 3 (≈ 3.71 µg/mL) | 25 (≈ 30.9 µg/mL) | 3 (≈ 3.71 µg/mL) |  |  |  |  |  |  |  |  | 
5 | CC(C)C[C@H](NC(=O)[C@H](C)NC(=O)[C@H](CC(C)C)NC(=O)[C@H](CCCNC(=N)N)NC(=O)[C@H](CC(C)C)NC(=O)[C@H](CC(C)C)NC(=O)[C@@H](N)CCCNC(=N)N)C(=O)N[C@@H](CCCNC(=N)N)C(=O)N[C@@H](CC(C)C)C(=O)N[C@@H](CC(C)C)C(=O)N[C@@H](CCCNC(=N)N)C(N)=O [bienA11] (H-RLLRLALRLLR-NH2; N-terminus assumed) |  | 25 | 12 (≈ 16.7 µg/mL) | 1.5 (≈ 2.09 µg/mL) | 6 (≈ 8.35 µg/mL) | 6 (≈ 8.35 µg/mL) | 3 (≈ 4.18 µg/mL) | 3 (≈ 4.18 µg/mL) | 3 (≈ 4.18 µg/mL) |  | hemolytic |  |  |  |  |  |  | 
6 | CC(C)C[C@H](NC(=O)[C@H](CCCNC(=N)N)NC(=O)[C@H](CC(C)C)NC(=O)[C@H](C)NC(=O)[C@H](CC(C)C)NC(=O)[C@H](CCCNC(=N)N)NC(=O)[C@H](CC(C)C)NC(=O)[C@H](CC(C)C)NC(=O)[C@@H](N)CCCNC(=N)N)C(N)=O [bienA9] (H-RLLRLALRL-NH2; N-terminus assumed) |  | 25 | 50 (≈ 56.1 µg/mL) | 1.5 (≈ 1.68 µg/mL) | 50 (≈ 56.1 µg/mL) | 6 (≈ 6.73 µg/mL) | 25 (≈ 28.1 µg/mL) | 50 (≈ 56.1 µg/mL) | 6 (≈ 6.73 µg/mL) | 0.17 |  |  |  |  |  |  |  | 
7 | CC[C@H](C)CCCCC(=O)N[C@@H](CCN)C(=O)N[C@H](C(=O)N[C@@H](CCN)C(=O)N[C@H]1CCNC(=O)[C@H]([C@@H](C)O)NC(=O)[C@H](CCN)NC(=O)[C@H](CCN)NC(=O)[C@H](CC(C)C)NC(=O)[C@@H](Cc2ccccc2)NC(=O)[C@H](CCN)NC1=O)[C@@H](C)O [polymyxin B, reference compound] (X1-[Dab]T[Dab][Dab][Dab][dF]L[Dab][Dab]T; lactam 4-C (inferred); N-terminus assumed) | 3 (≈ 3.61 µg/mL) |  |  |  |  |  |  |  |  |  |  | 5 | 1.5 (≈ 1.81 µg/mL) | 1.5 (≈ 1.81 µg/mL) | 3 (≈ 3.61 µg/mL) | 25 (≈ 30.1 µg/mL) | 1.5 (≈ 1.81 µg/mL) | 1.5 (≈ 1.81 µg/mL)
8 | CC(C)C[C@H](NC(=O)[C@H](CC(C)C)NC(=O)[C@H](CCCNC(=N)N)NC(=O)[C@H](CC(C)C)NC(=O)[C@H](CCCCN)NC(=O)[C@H](CC(C)C)NC(=O)[C@H](CCCNC(=N)N)NC(=O)[C@H](CC(C)C)NC(=O)[C@H](CC(C)C)NC(=O)[C@@H](N)CCCNC(=N)N)C(N)=O [bienK10] (H-RLLRLKLRLL-NH2; N-terminus assumed) |  | 0 | 50 (≈ 64.6 µg/mL) | 1.5 (≈ 1.94 µg/mL) | > 50 | 6 (≈ 7.76 µg/mL) | 25 (≈ 32.3 µg/mL) | 25 (≈ 32.3 µg/mL) | 3 (≈ 3.88 µg/mL) |  |  |  |  |  |  |  |  | 
